How the values were obtained:
[1] = system: P19 EC cells; assay: Induction of beating muscle in replated P19EC aggregates (hanging drops); type: cell-based, mouse
Protocol: END-2 cells and hES cells were cultured as described in Example 1. The hES2 cell line from ES Cell International Pte Ltd was used in all experiments. […] Co-cultures were then grown for up to 6 weeks and scored for the presence of areas of beating muscle from 5 days onwards. HepG2 cells, a carcinoma cell line resembling liver parenchymal cells (Knowles et al, (1980) Science 209:497-9), were cultured in DMEM plus 10% FCS and passaged twice weekly. […] Hanging-drop cultures of P19 EC cells were initiated and maintained in DMEM/Ham's F12 (1:1), as described previously (Mummery et al, 1991), using regular FCS while bulk production of P19 embryoid bodies in the presence or absence of END-2 conditioned medium for isolation of RNA for Northem blotting, was in the presence of charcoal-stripped FCS, as described (Mummery et al, 1991) to reduce background levels of cardiomyocyte differentiation caused by lipophilic substances possibly with retinoid-like activity in FCS. P19 clone 6 were cultured in αMEM and treated αMEM conditioned by END-2 cells. For electrophysiology, beating aggregates were dissociated using collagenase and replated on gelatine-coated coverslips. […]

[2] = system: Brachyury T; assay: Northern blot of Brachyury T in P19EC aggregates; type: cell-based, mouse; conditions: FIG. 10B
Protocol: (§1) END-2 cells and hES cells were cultured as described in Example 1. The hES2 cell line from ES Cell International Pte Ltd was used in all experiments. […] Co-cultures were then grown for up to 6 weeks and scored for the presence of areas of beating muscle from 5 days onwards. HepG2 cells, a carcinoma cell line resembling liver parenchymal cells (Knowles et al, (1980) Science 209:497-9), were cultured in DMEM plus 10% FCS and passaged twice weekly. […] Hanging-drop cultures of P19 EC cells were initiated and maintained in DMEM/Ham's F12 (1:1), as described previously (Mummery et al, 1991), using regular FCS while bulk production of P19 embryoid bodies in the presence or absence of END-2 conditioned medium for isolation of RNA for Northem blotting, was in the presence of charcoal-stripped FCS, as described (Mummery et al, 1991) to reduce background levels of cardiomyocyte differentiation caused by lipophilic substances possibly with retinoid-like activity in FCS. P19 clone 6 were cultured in αMEM and treated αMEM conditioned by END-2 cells. For electrophysiology, beating aggregates were dissociated using collagenase and replated on gelatine-coated coverslips.
RNA was isolated from P19 aggregates and poly A+ RNA selected, as described previously (Mummery et al, 1990, Dev. Biol. 142: 406413).
Background differentiation levels are reduced virtually to zero if the FCS is passed over an activated charcoal column (DCC-FCS) to remove residual retinoids; in addition, differentiation is blocked by activin (van den Eijnden-van Raaij et al, 1991, Mech. Dev. 33:157-166). […] The P19EC assay system was preferred because these cells are feeder independent for undifferentiated growth. […] Moreover, the induction of Brachyury T is blocked by the additional presence of activin (FIG. 10B), consistent with its ability to block the formation of beating muscle in aggregates. The transient expression of Brachyury T is similar to that observed during early mesoderm differentiation during gastrulation of the mouse embryo.

[3] = system: hES-derived cardiomyocytes; assay: Beating of hES-derived cardiomyocytes in response to pharmacological agonists; type: cell-based, human; conditions: hES2/END-2 co-culture derived cardiomyocytes
Protocol: as §1
The majority of the experiments described here were carried out using the hES2 cell line (Reubinoff et al, 2000). […] Oct4 expression thus correlated with phenotypic characteristics of undifferentiated cells. hES cells were subcultured by transferring small clumps of undifferentiated cells either to new, mit.C-treated MEFs or confluent cultures of mit.C-treated END-2 cells. After approximately 5d under these conditions, epithelial cells became evident which over the next few days become fluid-filled cysts (FIG. 1A). […] In addition, by 10 d areas of rhythmically contracting cells in more solid aggregates become evident (FIG. 1A, 3e) with a variety of overall morphologies (FIG. 1B, 3e). […]

[4] = system: P19 EC cells; conditions: van den Eijnden-van Raaij et al, 1991; cited from earlier work

Molecule: C[S+](C)[O-] [DMSO, dimethyl sulphoxide]
- cardiomyocyte differentiation of P19EC aggregates ([1]; control, FIG. 10): induces cardiomyocyte differentiation
- aggregates with beating muscle ([1]; day 10, FIG. 10A): All aggregates beat
- Brachyury T expression (early mesoderm marker) ([2]; aggregation phase, first 3 days): induced

Molecule: C[N+](C)(C)CCOC(N)=O [carbachol]
- beating of hES-derived cardiomyocytes in response to agonist [3]: upregulated

Molecule: CC(C)NCC(O)c1ccc(O)c(O)c1 (stereo not drawn) [isoprenaline]
- beating of hES-derived cardiomyocytes in response to agonist [3]: upregulated

Molecule: CNC[C@H](O)c1cccc(O)c1 [phenylephrine]
- beating of hES-derived cardiomyocytes in response to agonist [3]: upregulated

Molecule: activin
- effect on differentiation of P19EC aggregates to beating muscle [4]: blocked
- effect on DMSO induced Brachyury T expression ([2]; activin added with DMSO): blocked
- effect on END-2 CM induced Brachyury T expression ([2]; activin added with END-2 CM): blocked
